Test results as given in publication PMC6567099 (Journal of Enzyme Inhibition and Medicinal Chemistry, 2019).

Key:
SMO (spermine oxidase) = SMO (spermine oxidase) (Homo sapiens, UniProt Q9NWM0); test: luminol/HRP chemiluminescence assay of H2O2 with purified recombinant enzyme; format: biochemical
[1] = molecular target: APAO (N1-acetylpolyamine oxidase) (Homo sapiens, UniProt Q6QHF9); test: as above; format: biochemical
Sequence of APAO (N1-acetylpolyamine oxidase) (Q6QHF9 whole entry): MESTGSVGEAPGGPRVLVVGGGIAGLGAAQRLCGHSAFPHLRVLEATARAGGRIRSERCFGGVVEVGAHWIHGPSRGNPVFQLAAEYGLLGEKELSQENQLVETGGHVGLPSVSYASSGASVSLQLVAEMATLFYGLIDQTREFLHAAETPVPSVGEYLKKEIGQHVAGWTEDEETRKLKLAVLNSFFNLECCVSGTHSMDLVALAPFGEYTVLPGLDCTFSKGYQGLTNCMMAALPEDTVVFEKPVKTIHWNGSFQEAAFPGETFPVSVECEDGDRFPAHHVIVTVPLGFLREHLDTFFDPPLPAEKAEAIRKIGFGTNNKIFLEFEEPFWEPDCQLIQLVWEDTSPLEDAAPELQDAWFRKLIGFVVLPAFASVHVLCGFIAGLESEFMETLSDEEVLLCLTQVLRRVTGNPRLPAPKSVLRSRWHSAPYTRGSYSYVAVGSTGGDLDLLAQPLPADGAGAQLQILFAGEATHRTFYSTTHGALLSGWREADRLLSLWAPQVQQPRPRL

Sequence of SMO (spermine oxidase) (Q9NWM0 whole entry): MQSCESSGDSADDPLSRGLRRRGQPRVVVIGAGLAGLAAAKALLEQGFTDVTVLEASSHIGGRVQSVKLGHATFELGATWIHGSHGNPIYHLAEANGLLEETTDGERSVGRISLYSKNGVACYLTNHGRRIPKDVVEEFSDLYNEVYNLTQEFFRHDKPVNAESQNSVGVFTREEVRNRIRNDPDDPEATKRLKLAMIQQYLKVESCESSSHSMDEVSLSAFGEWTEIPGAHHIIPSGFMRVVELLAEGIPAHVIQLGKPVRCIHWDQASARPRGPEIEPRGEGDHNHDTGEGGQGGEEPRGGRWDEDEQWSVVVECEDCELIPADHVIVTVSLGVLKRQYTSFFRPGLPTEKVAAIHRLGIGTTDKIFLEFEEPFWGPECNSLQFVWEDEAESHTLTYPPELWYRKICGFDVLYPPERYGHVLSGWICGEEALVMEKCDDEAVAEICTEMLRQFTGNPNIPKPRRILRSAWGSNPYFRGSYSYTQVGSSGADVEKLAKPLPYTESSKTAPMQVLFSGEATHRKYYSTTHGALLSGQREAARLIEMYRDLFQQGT

## CN(C)CCCNCCCNC(=O)c1cccc2cccnc12 [SI-4650, N-(3-{[3-(dimethylamino)propyl]amino}propyl)-8-quinolinecarboxamide]
SMO (spermine oxidase)
  IC50: 381.8 ± 0.17 µM
[1]
  IC50: 35.4 ± 0.26 µM
